In PubChem BioAssay (NCI):
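Five concentrations, 48 hours, 96-well plates. GI50: concentration for 50% inhibition of growth. At the TGI there is no net growth.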

Columns and labels:
Experiment in all cases: growth of human tumour cells (NCI), 48 h
MDA-MB-435 = system: MDA-MB-435
PC-3 prostate = system: PC-3 prostate
NCI-H23 lung = system: NCI-H23 lung
UACC-62 melanoma = system: UACC-62 melanoma
OVCAR-5 ovarian = system: OVCAR-5 ovarian
SW-620 colon = system: SW-620 colon
OVCAR-4 ovarian = system: OVCAR-4 ovarian
SNB-75 CNS = system: SNB-75 CNS
SNB-19 CNS = system: SNB-19 CNS
A498 renal = system: A498 renal

Compound | TGI (MDA-MB-435) [µM] | GI50 (PC-3 prostate) [µM] | TGI (PC-3 prostate) [µM] | GI50 (NCI-H23 lung) [µM] | GI50 (UACC-62 melanoma) [µM] | GI50 (OVCAR-5 ovarian) [µM] | TGI (OVCAR-5 ovarian) [µM] | GI50 (SW-620 colon) [µM] | TGI (SW-620 colon) [µM] | TGI (NCI-H23 lung) [µM] | TGI (OVCAR-4 ovarian) [µM] | TGI (UACC-62 melanoma) [µM] | TGI (SNB-75 CNS) [µM] | TGI (SNB-19 CNS) [µM] | TGI (A498 renal) [µM] | GI50 (MDA-MB-435) [µM] | GI50 (OVCAR-4 ovarian) [µM] | GI50 (SNB-75 CNS) [µM] | GI50 (SNB-19 CNS) [µM] | GI50 (A498 renal) [µM]
COc1cccc(-c2cc(=O)c3cc(N4CCOCC4)ccc3[nH]2)c1 | 0.0256 | 0.0281 | > 100 | 0.55 | 0.041 | 0.268 | > 100 | 0.0125 | > 100 |  |  |  |  |  |  |  |  |  |  | 
CC(C)(C)C(=O)Nc1cccc2oc(-c3ccccc3)cc12 |  |  |  |  |  |  |  |  | > 100 | > 100 | > 100 | > 100 | > 100 | > 100 | > 100 |  |  |  |  | 
COC(=O)c1ccc(/C=C(\c2ccc([N+](=O)[O-])o2)S(=O)(=O)c2ccc(NC(C)=O)cc2)o1 | 12.8 |  | 29.8 |  |  |  | 10.9 |  | 11.8 | 28.3 | 4.67 | 4.31 | 36.2 | 32.2 |  |  |  |  |  | 
N#CC1=C(N)NC(=S)NC12Nc1ccccc1S2 (stereo not drawn) | 47.6 | 22 | 71.7 | 31.4 | 19.7 | 75.7 | > 100 | 36.7 | > 100 | > 100 | > 100 | 55.8 | > 100 | > 100 |  | 19.2 | 81.4 | 30.4 | 28.1 | 
O=C(O)c1ccc(C(O)(c2ccccc2)c2ccccc2)cc1 | > 100 |  | > 100 |  |  |  | > 100 |  |  | > 100 | > 100 | > 100 |  | > 100 |  |  |  |  |  | 
COc1cc(N2C(=O)[C@H](c3ccccc3)C2c2ccc(SC)cc2)cc(OC)c1OC (stereo partly drawn) |  | 0.0428 | > 100 | 0.0502 | 0.0484 | 0.0613 | > 100 | 0.0382 | > 100 | > 100 | > 100 | 8.86 | > 100 | > 100 | 0.078 |  | 0.0545 | 0.04 | 0.0422 | 0.0232
O=Nc1c(-c2c(O)[nH]c3cc(Br)ccc23)[nH]c2ccccc12 | 3.01 | 1.2 |  | 1.63 | 1.29 | 2.25 | 4.35 |  |  | 4.28 | 5.37 | 2.95 | 2.96 | 16.7 | 1.83 | 1.61 | 1.23 | 0.285 | 5.07 | 0.416
CN(C)CCC(CCN(C)C)=NO |  |  |  |  |  |  |  |  | > 100 | > 100 | > 100 | > 100 | > 100 | > 100 | > 100 |  |  |  |  | 
C#CC(=O)Nc1cccc2c1cc(C)n2-c1nc2c(c(NCc3ccccc3)n1)CCCC2 | 1.66 | 0.186 | 0.351 |  | 0.165 | 0.279 | 0.977 | 0.2 | 0.461 |  | 0.491 | 0.351 | 0.294 | 2.66 | 3.74 | 0.463 | 0.208 | 0.141 | 0.845 | 1.75
Oc1c(Cl)cc(Cl)cc1/C=N/Nc1nnc(N/N=C/c2cc(Cl)cc(Cl)c2O)c2ccccc12 | > 30.9 |  |  | 0.406 | 0.318 | 0.957 | > 100 | 0.416 | > 100 | > 100 | > 100 | 1.71 | > 31.1 | > 100 | > 100 | 0.484 | 0.388 | 0.867 | 0.505 | 2.19
CCOc1ccc(/C=C/c2cc(OC)c(OC)c(OC)c2)cc1 |  |  |  |  |  |  | > 100 |  | > 100 | > 45.6 | > 100 | > 100 | > 64.1 | > 83.6 | 30.4 |  |  |  |  | 
Cc1cc(N2CCCCC2)nc(NC2CCCC(Nc3ccnc4cc(Cl)ccc34)C2)n1 (stereo not drawn) | 2.73 | 1.29 | 2.86 |  |  | 1.88 | 4.84 | 1.49 | 3.14 |  | 3.29 |  | 3.18 | 3.44 | 3.42 | 1.32 | 1.4 | 1.39 | 1.58 | 1.67
CC(C)(C)c1cc(CCCCCCCC2(CCCCCCCc3cc(C(C)(C)C)cc(C(C)(C)C)c3)OC(COCCOCCCCCC#N)C(COCCOCCCCCC#N)O2)cc(C(C)(C)C)c1 (stereo not drawn) |  |  |  |  |  |  | > 100 |  | > 100 | > 100 | > 100 | > 100 | > 100 | > 100 | > 100 |  |  |  |  | 
COc1cc(CNCCN2C(=O)c3ccc4c5c(ccc(c35)C2=O)C(=O)N(CCNCc2cc(OC)c(OC)c(OC)c2)C4=O)cc(OC)c1OC |  |  |  | 0.794 | 0.552 |  |  |  |  | 1.78 | 0.398 | 1.36 | 0.826 | 1.84 |  |  | 0.122 | 0.232 | 0.827 | 
NS(=O)(=O)c1ccc(NC(=O)Cc2nc3ccccc3s2)cc1 |  |  |  |  |  |  | 35.2 |  | 31.7 | 29.5 | 34.9 | 29.4 | 30.4 | 49.5 | 36.8 |  |  |  |  | 
O=C(OCCCl)C1OC(n2cc(F)c(=O)[nH]c2=O)CC1O (stereo not drawn) |  |  |  |  |  |  | > 100 |  | > 100 | > 100 | > 100 | > 100 | > 100 | > 100 | > 100 |  |  |  |  | 
CC1=NN(C(=O)Nc2ccc(Cl)cc2)C(=O)C2CCC(=O)N12 (stereo not drawn) |  |  |  |  |  |  |  |  | > 100 | > 100 | > 100 | > 100 | > 100 | > 100 | > 100 |  |  |  |  | 
Cc1[nH]c2ccccc2c1CC/C(=N\Nc1ccccc1)c1ccccc1 |  |  |  |  |  |  | > 100 |  | > 100 | > 100 | > 100 | > 100 | > 100 |  | > 100 |  |  |  |  | 
C[C@@H](NS(=O)(=O)c1ccc(NC(=O)c2ccccc2)cc1)C(=O)O |  |  |  |  |  |  | > 100 |  | > 100 | > 100 | > 100 | > 100 | > 100 | > 100 | > 100 |  |  |  |  | 
